# Legend:
# [1] = system: cultured HUVECs; assay: Prostaglandin release from cultured HUVECs (competitive enzyme immunoassay); assay type: cell-based, human; settings: ASA 10^-4 M for 1 hour
# Procedure: Endothelial cells were treated with inhibitors of enzymes responsible for production of prostaglandins and nitric oxide. In each case, endothelial cells were pretreated by addition of the inhibitor to the culture medium for one hour, before the addition of blood and the TNF-provoking agonist (e.g., LPS) to the wells. Acetylsalicylic acid (ASA, aspirin), (Sigma, St. Louis, Mo.), which is an irreversible inhibitor of the cyclooxygenase enzyme, was removed after the incubation by washing the endothelial cells three times with Hanks balanced salt solution (HBSS) before adding the blood. Indomethacin and N^G -nitro-L-arginine methyl ester (L-NAME; Sigma), which are competitive inhibitors of cyclooxygenase, and nitric oxide synthase, respectively, were added to the HBSS wash solution and again directly to the blood as soon as it had been pipetted into the wells, so that the target enzyme would have no opportunity to escape inhibition. With indomethacin (which has been reported to increase TNF release from macrophages by blocking autocrine production of PGE2), controls were run in which indomethacin was added to the blood in the absence of endothelium.
# Therefore, endothelial monolayers were treated with ASA (10^-4 M for 1 hour), an irreversible cyclooxygenase inhibitor. ASA attenuated the inhibitory activity, but by less than 40% of the total inhibition. […]
# [2] = system: elastase release in whole blood over endothelial cell monolayer; assay: Augmentation of elastase release in whole blood by HUVEC monolayer; assay type: cell-based, human; settings: whole blood with endotoxin
# Procedure: An assay similar to that described in Example 2 was developed for neutrophil elastase in the same plasma samples (measured as the complex between elastase, and α-1-antitrypsin) using a murine monoclonal antibody (HEL 1076) to elastase as capture and biotinylated murine monoclonal antibody (HAT 1099) as detector. The useful range of this assay was 0.05 to 5 nM complex. These antibodies were obtained by immunizing mice with human neutrophil elastase, human α-1-antitrypsin (Athens Research and Technology, Athens, Ga.) and a complex of both using the method detailed in Example 2. Antibodies were screened for their ability to react with native and complexed antigen. Antibodies were purified from ascites using protein G (Pharmacia, Piscataway, N.J.) affinity chromatography and biotinylated using NHS-LC-biotin (Pierce). In addition to the inhibition of TNF release, calmodulin also augmented elastase release similar to that observed with the endothelial cell monolayer (FIG. 1, authentic calmodulin; FIG. 2, purified endothelial cell calmodulin).
# In addition, elastase release in whole blood measured as the complex of elastase with α-1 protease inhibitor (α-1 antitrypsin) was augmented by the presence of an endothelial cell monolayer as shown in FIG. 11 (n=8). […]
# [3] = system: inhibitory activity of porcine aortic endothelium on TNF release in whole blood; assay: TNF release in whole blood over pig aorta segments in situ; assay type: cell-based; settings: ASA pretreatment of vessel wall
# Procedure: (§1) To exclude the possibility that the inhibitory activity of endothelial monolayers was merely an artifact of tissue culture, experiments were performed using intact endothelium in situ in segments of porcine aorta. Normal farm pigs (Spotted Polland) weighing 30-35 kg were euthanized with pentobarbital and the thoracoabdominal aorta removed aseptically. The harvested aorta was rinsed in HBSS containing penicillin 50 IU/ml and streptomycin 50 μg/ml. The aorta was then opened longitudinally along its dorsal surface. The endothelial cell surface was left intact, or denuded mechanically by scraping gently ten times with a metal spatula. The opened aorta was then clamped into a multi-well plexiglass template device, such that the intimal surface of the aorta formed the bottom of the well. The wells were washed with HBSS and blood added and processed exactly as above for 24 well plates.
# (§2) As with cultured endothelial cells, TNF release was inhibited when whole blood was incubated in the presence of an intact aortic endothelial surface as compared to an adjacent mechanically denuded segment of vessel (FIG. 21; n=6).
# [4] = system: elastase release in whole blood over porcine aortic segments; assay: Elastase release in whole blood over pig aorta segments in situ; assay type: cell-based; settings: ASA pretreatment; intact or denuded segment
# Procedure: as §1, §2
# [5] = system: endothelial inhibition of LPS-induced TNF release in whole blood; assay: Endothelial (HUVEC) inhibition of LPS-induced TNF release in whole blood, endothelium treated with enzyme inhibitors; assay type: cell-based, human
# Procedure: (§3) Blood from healthy volunteers was drawn from the antecubital vein into a heparinized syringe (10 U/ml final; UpJohn, Kalamazoo, Mich.). 24-well culture plates (Costar, Cambridge, Mass.) were coated with 2% (w/v) gelatin (Sigma) and washed three times with Hanks balanced salt solution (HBSS) (Gibco BRL, Gaithersburg, Md.). Only the center eight wells were used to minimize evaporation. Then, 200 μl of blood was pipetted into each well. For comparative experiments involving endothelial cell monolayers, endothelial cells were seeded onto gelatin-coated wells at 3-5×10^5 cells per well 48 hours prior to experimentation. These wells were washed three times with HBSS and heparinized whole blood added as above. In most cases, the same plate would contain wells with and without endothelium for comparison purposes.
# (§4) Test reagents suspended in HBSS (8 to 10 μl) were added to the wells immediately after the blood. Plates were incubated at 37° C. in room air/5% CO2 on an orbital shaker at 150 rpm; incubations were four hours unless otherwise noted. The blood then was transferred to microcentrifuge tubes and centrifuged at 500× g for 10 minutes. The resulting platelet-poor plasma was collected and assayed for TNF immediately, as per Example 2 or stored frozen at -70° C. until use.
# Endothelial cells were treated with inhibitors of enzymes responsible for production of prostaglandins and nitric oxide. […]
# [6] = system: TNF release in whole blood; assay: TNF release in whole blood evoked by other agonists; assay type: cell-based, human; settings: 0.3 to 1 μg/ml
# Procedure: as §3, §4
# In most experiments, LPS (from E. coli strain 055:B5, Difco) was used to stimulate TNF release. […]
# [7] = system: LPS-induced TNF release in whole blood; assay: LPS-induced TNF release in whole blood (TNF ELISA); assay type: cell-based, human; settings: for inhibition of LPS-induced TNF release: 10^-6 M, added directly to whole blood
# Procedure: Immunoreactive TNF was measured using a sandwich ELISA sensitive to ≈0.1 ng/ml TNF. 96-well Immulon IV microtiter plates (Dynatech, Chantilly, Va.) were coated overnight at 4° C. with a monoclonal anti-TNF antibody, TNF 1286 or TNF 1311 (5 μg/ml in TBS, 50 μl per well).
# The next morning the ELISA plates were washed three times with TBS with 0.1% (v/v) Tween 20 (Sigma) and blocked for one hour with 1% BSA in TBS. Plates were then washed three times. Plasma samples were diluted 1:5 in 0.1% BSA in TBS, and 50 μl/well pipetted onto the plates and allowed to incubate at 37° C. for one hour. TNF standards were made up by addition of known amounts of recombinant human TNF-α (Upstate Biologicals Inc., Lake Placid, N.Y.) to pooled heparinized normal plasma diluted 1:5 in TBS/BSA. All samples and standards were assayed in duplicate. Plates were washed three times and biotinylated goat anti-TNF antibody or biotinylated monoclonal TNF 1289 (2 μg/ml in 0.1% BSA in TBS, 50 μl/well) was applied and incubated at 37° C. for one hour. Plates were washed three times and streptavidin-alkaline phosphatase (Gibco BRL, Grand Island, N.Y.) (0.025 μg/ml in 0.1% BSA in TBS, 50 μl/well) was applied and incubated at 37° C. for one hour. Following a final four washes, an amplified substrate (Gibco BRL) was applied according to the manufacturer's directions. Plates were read at 492 nm on a microtiter plate reader (Molecular Devices, Palo Alto, Calif.) and values obtained by comparing unknowns to a standard curve using a four-parameter fit. The useful range of this assay was 1-50 ng/ml.
# as §3, §4
# In most experiments, LPS (from E. coli strain 055:B5, Difco) was used to stimulate TNF release. Other agonists used were zymosan (Sigma, St. Louis, Mo.), muramyl dipeptide (Sigma), recombinant human interferon-γ (Mallinckrodt, Paris, Ky.), and recombinant human interleukin-1β (Collaborative Research, Bedford, Mass.). In some experiments, prostaglandin E2 (PGE2) and the stable prostacyclin analogue, carbacyclin (both from Cayman Chemical, Ann Arbor, Mich.) were added just before the LPS. These were dissolved as a 2.84×10^-3 M stock solution in DMSO and diluted in HBSS; buffer controls with the same concentrations of DMSO were assayed in parallel.
# [8] = system: human peripheral blood mononuclear cells (PBMC); assay: LPS-induced TNF production by isolated peripheral blood mononuclear cells; assay type: cell-based; settings: PGE2 10^-7 M, n=4, read-out: inhibition of TNF production by isolated PBMCs
# Procedure: To establish whether the inhibitory effect of the endothelium was exerted directly on monocytes or required an intermediary blood cell, human peripheral blood mononuclear cells (PBMC) were prepared from freshly drawn heparinized blood by density-gradient separation on Ficoll-Hypaque (Mono-Poly Resolving Medium, Flow Laboratories, McLean, Va.). Furmaniak-Kazmierczak, et al., "Protein S enhances C4b binding protein interaction with neutrophil," Blood 81:405-411 (1993). Isolated PBMC were washed three times with RPMI 1640 (Mediatech) and resuspended at a concentration of 3-5×10^6 cells/ml. 200 μl aliquots were added to 24-well tissue culture plates, incubated, and assayed as described with whole blood.
# Mononuclear cells (4.47±0.94×10^6 /ml) isolated from fresh whole blood released TNF dose-dependently in response to LPS in a manner similar to whole blood.
# [9] = system: TNF release in whole blood in response to E. coli; assay: TNF release in whole blood in response to gentamicin-killed E. coli; assay type: cell-based, human; settings: data not shown
# Procedure: Whole gentamicin-killed E. coli were examined as another stimulus that probably evokes TNF release by several different pathways; for example, they serve as a phagocytic stimulus and also activate complement components. A single colony of E. coli serotype B7 086a61 (ATCC#33985) on an LB plate was cultured overnight in LB Medium (Difco, Detroit, Mich.). The next morning the cells were washed three times in Hanks balanced salt solution (HBSS) and then resuspended in HBSS to 5.7×10^9 cells per ml. Before addition to blood, bacteria were killed by treatment with gentamicin sulfate (Elkins-Sinn, Cherry Hill, N.J.), 500 μg/ml for one hour. TNF release assays were performed according to procedures given in Example 2.
compound,measurement,setting,value
"CC(=O)Oc1ccccc1C(=O)O [ASA, Acetylsalicylic acid]",PGE2 release from cultured HUVECs after treatment,"[1]; untreated 0.93 nM, 0.2 nM is limit of detection",< 0.2 nM
same,prostacyclin release from cultured HUVECs after treatment,[1]; untreated 4.0 nM,0.26 nM
same,effect on endothelial augmentation of elastase release,[2],not changed
same,effect on TNF-inhibitory activity of aortic endothelium,[3],partially reduced
same,effect on stimulation of elastase release by aortic segments,[4],did not significantly alter
"COC(=O)[C@@H](N)CCCN=C(N)N[N+](=O)[O-] [L-NAME, N^G -nitro-L-arginine methyl ester]",effect on endothelial inhibition of TNF release,[5]; L-NAME 10^-4 M,No reduction
"CC(=O)N[C@H]1C(O)O[C@H](CO)[C@@H](O)[C@@H]1O[C@H](C)C(=O)N[C@@H](C)C(=O)N[C@H](CCC(=O)O)C(N)=O (some centres unmarked) [Muramyl dipeptide, muramyl dipeptide]",TNF release agonist activity alone,[6],weak agonists
"CCCCC[C@H](O)/C=C/[C@H]1[C@H](O)CC(=O)[C@@H]1C/C=C\CCCC(=O)O [PGE2, prostaglandin E2]",inhibition of LPS-induced TNF release,[7]; no endothelial cells,almost complete suppression
same,inhibition at 0.1 µM,"[7]; Homo sapiens, PGE2 10^-7 M, n=12, read-out: inhibition of whole-blood TNF production",83.6 ± 2.7%
same,potency relative to carbacyclin (inhibition of LPS-induced TNF release),"[7]; whole blood, no endothelial cells",at least 10 fold
same,inhibition at 0.1 µM,[8],63.9 ± 9.6%
CCCCC[C@H](O)/C=C/[C@@H]1[C@H]2C/C(=C/CCCC(=O)O)C[C@H]2C[C@H]1O [carbacyclin],inhibition of LPS-induced TNF release,[7]; no endothelial cells,almost complete suppression
"COc1ccc2c(c1)c(CC(=O)O)c(C)n2C(=O)c1ccc(Cl)cc1 [indomethacin, Indomethacin]",effect on LPS-induced TNF release in the absence of endothelium,"[7]; indomethacin added to blood, no endothelium",marginally higher TNF release
same,effect on inhibitory effect of endothelial cells in suspension on TNF release,[5]; endothelial cells in suspension,did not block
same,effect on endothelial augmentation of elastase release,[2],not changed
Polymyxin B,effect on TNF response to LPS,"[7]; whole blood, data not shown",dose-dependently antagonized
same,effect on TNF response to E. coli,[9],unaffected

# Source: US5698518A, “Method for regulating inflammation and tumor growth with calmodulin, calmodulin analogues or calmodulin antagonists” (Oklahoma Medical Research Foundation, priority 1994, dated 1997)
